# Experimental data as given in US20120269870A1, “SWITCHABLE POLYMERS AND SURFACES WITH REVERSIBLY SWITCHABLE PROPERTIES” (University of Washington through its Center for …, priority 2011, published 2012).
# Assay: Kinetic study between CB—OH and CB-Ring by 1H NMR
# Assay type: physicochemical
# Details: for half-life of CB-Ring (hydrolysis to CB—OH): buffer
# Description: Kinetic study between CB—OH and CB-Ring. The equilibrium conversion between the CB—OH and CB-Ring was monitored by ^1H NMR at various time points. To monitor the formation of CB-Ring, CB—OH powder was initially dissolved in TFA-d at a concentration of 0.2 M. The conversion from CB-Ring to CB—OH was studied by dissolving CB-Ring in either pH 7.3 or pH 10 buffer at a concentration of 0.2 M. These two buffers were made from 200 mM Na2CO3 in D2O and were titrated with DCl. Conversion was calculated based on the ratio of the characteristic peak for CB-Ring (1H, CH2═C(CH3)COOCH2CH(O—)CH2—) and a common peak of both structures (6H, —CH2N(CH3)2CH2—). In FIG. 5, the final conversion within 160 min was about 93% for all three conditions investigated. Because the integration error for ^1H NMR can be as large as 10%, a value of 93% essentially represented an almost full conversion.
# Kinetic study between CB—OH and CB-Ring in acetic acid/pH=7.3 buffer. ^1H NMR was used to monitor the equilibrium conversion between the CB—OH and CB-Ring. CB—OH monomer was initially dissolved in [D]acetic acid at a concentration of 0.2 M. At various time points, the spectra were collected, and composition for the formed CB-Ring was calculated based on the ratio of the characteristic peaks for CB-Ring and CB—OH (FIG. 16). The equilibrated product (a mixture of CB-Ring and CB—OH) in [D]acetic acid was precipitated in ethyl ether, vacuum dried, and placed into pH=7.3 buffer made from 200 mM Na2CO3 in D2O titrated with DCl. CB-Ring was hydrolyzed to CB—OH at this condition and the composition for the CB-Ring at various time points were measured (FIG. 16).
"conversion of CB—OH to CB-ring (in words) (TFA, 1 h)",time to full conversion into the CB-Ring structure (TFA-d),"half-life at 0.2 M (TFA-d solution, acidic environment, TFA-d / TFA, read-out: half-life of CB—OH (conversion to CB-Ring))","final conversion to CB-Ring within 160 min (TFA-d, 0.2 M)","conversion of CB—OH to CB-Ring ([D]HAc (acetic acid), 0.2 M, 20 h)",Structure (SMILES),half-life of CB-Ring (hydrolysis to CB—OH) (pH 7),half-life of CB-Ring (hydrolysis to CB—OH) (pH 10),final conversion to CB—OH within 160 min (pH 7.3 buffer (200 mM Na2CO3 in D2O titrated with DCl)),"time to nearly full conversion (hydrolysis) of CB-Ring back to CB—OH (pH 7.3 buffer, product equilibrated 40 h in [D]HAc)",time to complete conversion to the zwitterionic form (pH 10),final conversion to CB—OH within 160 min (pH 10 buffer (200 mM Na2CO3 in D2O titrated with DCl))
–,–,–,–,–,"C=C(C)C(=O)OCC1C[N+](C)(C)CC(=O)O1 (centres unmarked) [CB-Ring, 2-(Methacryloyloxymethyl)-4,4-dimethyl-6-oxomorpholin-4-ium]",about 4 min,< 1 min,about 93%,less than 10 min,less than 6 min,about 93%
almost complete conversion,≤ 2 h,~14 min,about 93%,50%,"C=C(C)C(=O)OCC(O)C[N+](C)(C)CC(=O)[O-] (centres unmarked) [CB—OH, 2-((2-Hydroxy-3-(methacryloyloxy)propyl)dimethylammonio)acetate]",–,–,–,–,–,–
